Data from article PMC8429728, “TNK1 is a ubiquitin-binding and 14-3-3-regulated kinase that can be targeted to block tumor growth” (Nature Communications, 2021).
Where two headings read alike, the source gives them in different places.

What was measured:
Test in all cases: biochemical
Design in all cases: Reaction Biology 371-kinase panel at Km ATP, per cent enzyme activity relative to DMSO, single dose in duplicate
CAMK1a = molecular target: T1, CAMK1a (Homo sapiens, UniProt Q14012); settings: duplicate measurements, Km ATP
T1 construct: gene CAMK1
Summary of the method: (§1)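 Compound screened at 300 nM in vitro across a 371-kinase panel. Enzyme activity expressed as % of DMSO controls. IC50 values came from sigmoidal variable-slope dose-response fits with the bottom fixed at 0.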

CDK2/cyclin E2 = CDK2/cyclin E2 (Homo sapiens, UniProt P24941); settings: duplicate measurements, Km ATP
Summary of the method: as §1

CDK3/cyclin E = CDK3/cyclin E (Homo sapiens, UniProt Q00526); settings: duplicate measurements, Km ATP
CDK3/cyclin E, sequence (Q00526 whole entry): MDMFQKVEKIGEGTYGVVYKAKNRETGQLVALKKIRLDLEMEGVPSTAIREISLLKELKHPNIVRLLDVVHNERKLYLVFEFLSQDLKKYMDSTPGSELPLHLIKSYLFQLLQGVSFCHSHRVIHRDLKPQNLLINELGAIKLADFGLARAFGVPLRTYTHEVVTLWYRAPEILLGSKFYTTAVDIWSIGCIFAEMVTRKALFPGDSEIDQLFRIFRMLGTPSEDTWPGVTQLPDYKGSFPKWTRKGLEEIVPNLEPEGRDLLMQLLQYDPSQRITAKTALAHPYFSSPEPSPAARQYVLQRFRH
CDK3/cyclin E, sequence (P24864 whole entry partner): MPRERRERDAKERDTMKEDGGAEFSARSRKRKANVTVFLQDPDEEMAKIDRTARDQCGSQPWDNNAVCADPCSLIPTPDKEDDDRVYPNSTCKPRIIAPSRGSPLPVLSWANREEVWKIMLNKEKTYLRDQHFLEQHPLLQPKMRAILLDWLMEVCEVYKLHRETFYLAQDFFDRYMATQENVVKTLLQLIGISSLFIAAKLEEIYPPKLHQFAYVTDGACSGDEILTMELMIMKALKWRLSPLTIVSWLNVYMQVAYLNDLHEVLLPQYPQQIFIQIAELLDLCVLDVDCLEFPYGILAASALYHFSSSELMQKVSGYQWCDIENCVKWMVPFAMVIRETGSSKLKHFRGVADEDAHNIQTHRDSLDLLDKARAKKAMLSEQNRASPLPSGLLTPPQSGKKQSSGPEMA
Summary of the method: as §1

CDK6/cyclin D1 = CDK6/cyclin D1 (Homo sapiens, UniProt Q00534); settings: duplicate measurements, Km ATP
Summary of the method: as §1

CHK1 = molecular target: T2, CHK1 (Homo sapiens, UniProt O14757); settings: duplicate measurements, Km ATP
T2 construct: gene CHEK1
Summary of the method: as §1

CK1g2 = molecular target: T3, CK1g2 (Homo sapiens, UniProt P78368); settings: duplicate measurements, Km ATP
T3 construct: gene CSNK1G2
Summary of the method: as §1

EPHA1 = EPHA1 (Homo sapiens, UniProt P21709); settings: duplicate measurements, Km ATP
Summary of the method: as §1

FGFR1 = FGFR1 (Homo sapiens, UniProt P11362); settings: duplicate measurements, Km ATP
FGFR1, sequence (P11362 whole entry): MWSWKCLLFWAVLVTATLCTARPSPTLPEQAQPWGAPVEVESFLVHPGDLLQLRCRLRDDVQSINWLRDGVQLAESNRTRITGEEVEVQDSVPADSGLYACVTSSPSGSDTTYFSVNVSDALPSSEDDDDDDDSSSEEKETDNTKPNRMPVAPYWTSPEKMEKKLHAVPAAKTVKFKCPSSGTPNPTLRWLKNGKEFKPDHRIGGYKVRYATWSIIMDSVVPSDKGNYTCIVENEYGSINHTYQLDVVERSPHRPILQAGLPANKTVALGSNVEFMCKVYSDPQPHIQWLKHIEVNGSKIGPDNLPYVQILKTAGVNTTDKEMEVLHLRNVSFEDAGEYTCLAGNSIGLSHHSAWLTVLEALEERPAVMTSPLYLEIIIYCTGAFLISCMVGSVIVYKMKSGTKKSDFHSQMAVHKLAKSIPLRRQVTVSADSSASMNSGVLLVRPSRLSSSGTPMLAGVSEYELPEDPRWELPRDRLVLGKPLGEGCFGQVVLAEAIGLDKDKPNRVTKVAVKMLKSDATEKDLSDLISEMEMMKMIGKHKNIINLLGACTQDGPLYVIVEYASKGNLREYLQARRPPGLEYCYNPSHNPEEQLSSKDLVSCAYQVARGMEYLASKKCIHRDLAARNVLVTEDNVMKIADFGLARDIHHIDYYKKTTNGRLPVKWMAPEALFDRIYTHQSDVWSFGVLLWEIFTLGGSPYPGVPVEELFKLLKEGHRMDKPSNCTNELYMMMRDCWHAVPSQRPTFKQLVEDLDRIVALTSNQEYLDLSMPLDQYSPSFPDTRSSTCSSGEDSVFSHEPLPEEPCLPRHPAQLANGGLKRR
Summary of the method: as §1

GRK1 = GRK1 (Homo sapiens, UniProt Q15835); settings: duplicate measurements, Km ATP
GRK1, sequence (Q15835 whole entry): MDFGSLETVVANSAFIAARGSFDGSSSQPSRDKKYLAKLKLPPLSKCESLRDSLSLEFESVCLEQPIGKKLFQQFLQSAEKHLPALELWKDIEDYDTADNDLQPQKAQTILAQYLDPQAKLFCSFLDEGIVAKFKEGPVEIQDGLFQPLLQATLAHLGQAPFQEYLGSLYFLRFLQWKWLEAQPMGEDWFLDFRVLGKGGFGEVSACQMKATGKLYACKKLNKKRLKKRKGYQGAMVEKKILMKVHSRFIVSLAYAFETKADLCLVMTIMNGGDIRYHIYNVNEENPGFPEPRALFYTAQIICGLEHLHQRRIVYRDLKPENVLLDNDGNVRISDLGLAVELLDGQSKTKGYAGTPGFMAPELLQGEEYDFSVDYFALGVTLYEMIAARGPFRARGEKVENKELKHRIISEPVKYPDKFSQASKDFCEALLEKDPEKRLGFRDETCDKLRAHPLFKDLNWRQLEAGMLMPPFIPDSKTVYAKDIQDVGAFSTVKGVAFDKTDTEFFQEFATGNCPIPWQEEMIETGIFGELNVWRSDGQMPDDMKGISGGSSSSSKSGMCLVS
Summary of the method: as §1

Haspin = Haspin (Homo sapiens, UniProt Q8TF76); settings: duplicate measurements, Km ATP
Haspin, sequence (Q8TF76 whole entry): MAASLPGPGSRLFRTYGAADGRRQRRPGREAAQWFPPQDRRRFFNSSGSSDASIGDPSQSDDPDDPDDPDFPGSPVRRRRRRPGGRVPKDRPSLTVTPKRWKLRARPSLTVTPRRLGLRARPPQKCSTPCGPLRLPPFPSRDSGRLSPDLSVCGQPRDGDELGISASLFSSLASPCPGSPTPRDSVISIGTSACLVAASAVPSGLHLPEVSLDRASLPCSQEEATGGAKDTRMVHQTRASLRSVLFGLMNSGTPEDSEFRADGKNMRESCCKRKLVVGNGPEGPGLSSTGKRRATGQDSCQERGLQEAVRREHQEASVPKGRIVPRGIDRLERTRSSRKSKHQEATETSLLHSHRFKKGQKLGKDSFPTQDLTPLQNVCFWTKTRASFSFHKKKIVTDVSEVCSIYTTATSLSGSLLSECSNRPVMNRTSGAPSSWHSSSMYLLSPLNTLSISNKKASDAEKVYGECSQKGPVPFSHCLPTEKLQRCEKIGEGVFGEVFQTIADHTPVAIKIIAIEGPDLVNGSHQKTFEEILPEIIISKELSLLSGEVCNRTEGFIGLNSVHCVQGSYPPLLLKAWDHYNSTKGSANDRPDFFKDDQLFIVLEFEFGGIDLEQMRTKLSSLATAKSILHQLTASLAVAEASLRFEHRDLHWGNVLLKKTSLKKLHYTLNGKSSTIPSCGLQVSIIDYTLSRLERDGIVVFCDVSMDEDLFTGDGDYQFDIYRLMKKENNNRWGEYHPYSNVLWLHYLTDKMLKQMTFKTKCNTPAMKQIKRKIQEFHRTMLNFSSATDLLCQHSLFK
Summary of the method: as §1

IGF1R = IGF1R (Homo sapiens, UniProt P08069); settings: duplicate measurements, Km ATP
Summary of the method: as §1

JNK1 = molecular target: T4, JNK1 (Homo sapiens, UniProt P45983); settings: duplicate measurements, Km ATP; read-out: % Enzyme Activity (relative to DMSO controls) / TP-0005801 (0.3µM) / Data 1
T4 construct: gene MAPK8
Summary of the method: as §1

PIM2 = PIM2 (Homo sapiens, UniProt Q9P1W9); settings: duplicate measurements, Km ATP
Summary of the method: as §1

PKCepsilon = molecular target: T5, PKCepsilon (Homo sapiens, UniProt Q02156); settings: duplicate measurements, Km ATP
T5 construct: gene PRKCE
T5 sequence (Q02156 whole entry): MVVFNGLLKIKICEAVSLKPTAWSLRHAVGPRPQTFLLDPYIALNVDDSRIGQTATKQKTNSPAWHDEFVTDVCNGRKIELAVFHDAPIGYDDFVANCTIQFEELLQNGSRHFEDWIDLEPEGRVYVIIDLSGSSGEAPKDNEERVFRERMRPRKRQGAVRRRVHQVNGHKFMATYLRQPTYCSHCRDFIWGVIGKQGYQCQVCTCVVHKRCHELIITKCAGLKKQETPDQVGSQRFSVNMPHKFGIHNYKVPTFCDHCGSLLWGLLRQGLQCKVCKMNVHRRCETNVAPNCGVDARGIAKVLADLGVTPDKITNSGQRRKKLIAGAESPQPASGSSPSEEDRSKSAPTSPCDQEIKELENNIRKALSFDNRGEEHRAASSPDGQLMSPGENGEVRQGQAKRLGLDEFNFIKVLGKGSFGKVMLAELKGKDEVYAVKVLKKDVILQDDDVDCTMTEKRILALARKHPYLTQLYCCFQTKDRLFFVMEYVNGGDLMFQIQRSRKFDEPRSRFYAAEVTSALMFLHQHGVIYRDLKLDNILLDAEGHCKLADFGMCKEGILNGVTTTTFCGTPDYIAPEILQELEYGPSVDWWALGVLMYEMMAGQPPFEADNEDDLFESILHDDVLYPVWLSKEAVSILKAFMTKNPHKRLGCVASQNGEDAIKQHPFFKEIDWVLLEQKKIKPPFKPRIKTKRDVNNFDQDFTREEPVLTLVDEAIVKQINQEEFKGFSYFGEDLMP
Summary of the method: as §1

RSK1 = molecular target: T6, RSK1 (Homo sapiens, UniProt Q15418); settings: duplicate measurements, Km ATP
T6 construct: gene RPS6KA1
Summary of the method: as §1

SNRK = SNRK (Homo sapiens, UniProt Q9NRH2); settings: duplicate measurements, Km ATP
Summary of the method: as §1

STK38L/NDR2 = STK38L/NDR2 (Homo sapiens, UniProt Q9Y2H1); settings: duplicate measurements, Km ATP
Summary of the method: as §1

TRKA = molecular target: T7, TRKA (Homo sapiens, UniProt P04629); settings: duplicate measurements, Km ATP
T7 construct: gene NTRK1
T7 sequence (P04629 whole entry): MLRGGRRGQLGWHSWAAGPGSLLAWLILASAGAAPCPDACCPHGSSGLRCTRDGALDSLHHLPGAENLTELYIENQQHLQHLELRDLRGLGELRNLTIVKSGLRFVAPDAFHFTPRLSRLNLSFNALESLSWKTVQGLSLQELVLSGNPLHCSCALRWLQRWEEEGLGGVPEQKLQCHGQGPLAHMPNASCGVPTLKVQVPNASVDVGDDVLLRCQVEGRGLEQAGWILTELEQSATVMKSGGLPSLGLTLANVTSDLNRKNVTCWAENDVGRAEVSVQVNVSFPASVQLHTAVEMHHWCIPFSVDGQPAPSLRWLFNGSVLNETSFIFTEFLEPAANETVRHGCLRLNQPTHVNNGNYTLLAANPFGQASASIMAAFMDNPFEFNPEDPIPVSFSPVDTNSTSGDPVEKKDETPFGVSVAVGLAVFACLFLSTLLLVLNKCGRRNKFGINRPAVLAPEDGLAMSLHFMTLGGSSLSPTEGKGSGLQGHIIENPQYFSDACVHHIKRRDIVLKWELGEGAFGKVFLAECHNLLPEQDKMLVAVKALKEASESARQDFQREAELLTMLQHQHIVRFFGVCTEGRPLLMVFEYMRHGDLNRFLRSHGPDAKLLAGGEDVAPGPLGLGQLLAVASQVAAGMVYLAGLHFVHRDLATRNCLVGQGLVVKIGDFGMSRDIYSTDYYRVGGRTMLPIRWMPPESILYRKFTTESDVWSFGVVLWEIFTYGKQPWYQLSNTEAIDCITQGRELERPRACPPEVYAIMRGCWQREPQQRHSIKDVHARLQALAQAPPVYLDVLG
Summary of the method: as §1

TSSK2 = TSSK2 (Homo sapiens, UniProt Q96PF2); settings: duplicate measurements, Km ATP
TSSK2, sequence (Q96PF2 whole entry): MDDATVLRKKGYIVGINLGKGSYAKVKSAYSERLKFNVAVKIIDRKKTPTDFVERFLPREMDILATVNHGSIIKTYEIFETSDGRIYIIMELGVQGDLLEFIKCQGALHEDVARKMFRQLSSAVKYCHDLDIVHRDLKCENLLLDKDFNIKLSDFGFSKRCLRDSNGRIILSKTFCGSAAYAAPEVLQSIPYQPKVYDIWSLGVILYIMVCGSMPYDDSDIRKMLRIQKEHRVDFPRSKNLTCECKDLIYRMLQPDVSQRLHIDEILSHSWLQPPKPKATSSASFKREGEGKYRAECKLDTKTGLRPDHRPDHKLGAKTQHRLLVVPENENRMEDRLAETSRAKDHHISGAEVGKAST
Summary of the method: as §1

p70S6K/RPS6KB1 = p70S6K/RPS6KB1 (Homo sapiens, UniProt P23443); settings: duplicate measurements, Km ATP
Summary of the method: as §1

[1] = read-out: % Enzyme Activity (relative to DMSO controls) / TP-0005801 (0.3µM) / Data 1
[2] = read-out: % Enzyme Activity (relative to DMSO controls) / TP-0005801 (0.3µM) / Data 2

## COc1cc(N2CCN(C)CC2)c(C)cc1Nc1ncc(Br)c(Nc2cccnc2N(C)C)n1 [TP-5801]
CAMK1a; [1]
  remaining activity at 0.3 µM: 92.6%
CAMK1a; [2]
  remaining activity at 0.3 µM: 91.5%
CDK2/cyclin E2; [1]
  remaining activity at 0.3 µM: 102%
CDK2/cyclin E2; [2]
  remaining activity at 0.3 µM: 101%
CDK3/cyclin E; [1]
  remaining activity at 0.3 µM: 98%
CDK3/cyclin E; [2]
  remaining activity at 0.3 µM: 97.7%
CDK6/cyclin D1; [1]
  remaining activity at 0.3 µM: 88.2%
CDK6/cyclin D1; [2]
  remaining activity at 0.3 µM: 87.5%
CHK1; [1]
  remaining activity at 0.3 µM: 104%
CHK1; [2]
  remaining activity at 0.3 µM: 101%
CK1g2; [1]
  remaining activity at 0.3 µM: 94.5%
CK1g2; [2]
  remaining activity at 0.3 µM: 92.9%
EPHA1; [1]
  remaining activity at 0.3 µM: 96.8%
EPHA1; [2]
  remaining activity at 0.3 µM: 96.5%
FGFR1; [1]
  remaining activity at 0.3 µM: 83.9%
FGFR1; [2]
  remaining activity at 0.3 µM: 83.3%
GRK1; [1]
  remaining activity at 0.3 µM: 118%
GRK1; [2]
  remaining activity at 0.3 µM: 109%
Haspin; [1]
  remaining activity at 0.3 µM: 88.2%
Haspin; [2]
  remaining activity at 0.3 µM: 86.9%
IGF1R; [1]
  remaining activity at 0.3 µM: 16.7%
IGF1R; [2]
  remaining activity at 0.3 µM: 16.2%
JNK1
  remaining activity at 0.3 µM: 74.7%
PIM2; [1]
  remaining activity at 0.3 µM: 116%
PIM2; [2]
  remaining activity at 0.3 µM: 110%
PKCepsilon; [1]
  remaining activity at 0.3 µM: 93.6%
PKCepsilon; [2]
  remaining activity at 0.3 µM: 93.3%
RSK1; [1]
  remaining activity at 0.3 µM: 76.2%
RSK1; [2]
  remaining activity at 0.3 µM: 74.2%
SNRK; [1]
  remaining activity at 0.3 µM: 98.8%
SNRK; [2]
  remaining activity at 0.3 µM: 98.6%
STK38L/NDR2; [1]
  remaining activity at 0.3 µM: 53.1%
STK38L/NDR2; [2]
  remaining activity at 0.3 µM: 52.8%
TRKA; [1]
  remaining activity at 0.3 µM: 93.3%
TRKA; [2]
  remaining activity at 0.3 µM: 82.4%
TSSK2; [1]
  remaining activity at 0.3 µM: 88.4%
TSSK2; [2]
  remaining activity at 0.3 µM: 86.9%
p70S6K/RPS6KB1; [1]
  remaining activity at 0.3 µM: 105%
p70S6K/RPS6KB1; [2]
  remaining activity at 0.3 µM: 102%
